The values below come from a melting point compilation (Tetko et al.).

A word on the melting point: it is the temperature of the solid-liquid transition.

`Nc1ccc(-n2cncn2)c(C(F)(F)F)c1`: the melting point was 127 to 129 °C.

In turn, `CC1CNC(=O)CC(C)C1` (stereo unspecified) displayed a melting point of 122 to 124 °C.

On to `O=c1[nH]c(CCl)nc2ccsc12`, for which the melting point lay within 190 to 193 °C.

Take `O=C(NCc1ccccc1)c1ccnc(Cl)c1`: the melting point lay in the range of 99 to 101 °C.

Consider `Cc1ccc(-c2n[nH]cc2Br)cc1C`, for which the melting point was 116 to 118 °C.

Molecule `Cc1ccc(S(=O)(=O)Cl)cc1Br` had a melting point of 69 to 71 °C.

In turn, `Nc1nc2ccc(OCC(F)(F)F)cc2s1` returned a melting point of 134 to 136 °C.

In turn, `Cc1cc(C=O)c(C)[nH]1` yielded a melting point of 139 to 141 °C.

`COC(=O)c1occc1CC#N` returned a melting point of 62 to 64 °C.

Consider `CCOC(=O)/C(C#N)=C\Nc1ccc(F)c(F)c1F`, for which the melting point was 142 to 144 °C.

`Cc1cc(Br)ccc1C(=O)N1CCCC(C(=O)O)C1` (stereo unspecified): the melting point was 123 to 125 °C.

As to `O=C1CC2(CCCC2)CN1`, the melting point is 68 to 70 °C.

`O=[N+]([O-])c1ccc(Cl)cc1S(=O)(=O)Cl` displayed a melting point of 67 to 69 °C.

`Nc1nonc1-c1ccccn1` displayed a melting point of 124 to 126 °C.

`NCc1ccc(N2CCN(c3ccccc3)CC2)nc1`: the melting point is 111 to 113 °C.

As to `O=C1Nc2ccc(S(=O)(=O)Cl)cc2C1(Cl)Cl`, the melting point lay within 134 to 136 °C.

In turn, `Fc1ccc(-c2csc(Nc3ccccc3)n2)cc1` registered a melting point of 91 to 93 °C.

For the molecule `c1nnc(C2CCNCC2)[nH]1`, the melting point fell in the range of 208 to 210 °C.

With `Cn1cc(C=O)c(-c2cccs2)n1`, the melting point lay in the range of 64 to 66 °C.

For `N#Cc1c(N)sc2c1-c1ccccc1CC2`, the melting point was 166 to 168 °C.

For the molecule `N#Cc1cccc(-c2cscn2)c1`, the melting point fell in the range of 111 to 113 °C.

As for `CNS(=O)(=O)c1ccc(-c2ccccc2OC(F)(F)F)c(C(=O)O)c1`, the melting point fell in the range of 172 to 174 °C.

Molecule `O=C(O)c1cc2c(=O)n3ccccc3nc2n1Cc1ccccc1` registered a melting point of 257 to 259 °C.

As for `NNc1nccnc1Cl`, the melting point was 153 to 155 °C.

`Cn1c(N)nc2c(F)cccc21` yielded a melting point of 163 to 165 °C.

The molecule `O=[N+]([O-])c1c(Cl)nc2ccccn12` showed a melting point of 170 to 172 °C.

Molecule `OC(CC1COCCN1)c1cccs1` (stereo unspecified) registered a melting point of 109 to 111 °C.

Molecule `FC(F)(F)Cn1nnnc1S` registered a melting point of 122 to 124 °C.

Molecule `COc1ccc(CC(=O)NN)cc1` showed a melting point of 132 to 134 °C.

As for `Nn1c(=O)[nH]c2ccccc2c1=O`, the melting point fell in the range of 297 to 299 °C.

`Cc1cc(S(N)(=O)=O)ccc1[N+](=O)[O-]` gave a melting point of 131 to 133 °C.

Regarding `NNC(=O)C1CC1`, the melting point lay within 92 to 94 °C.

Molecule `CC1Cc2cc(S(=O)(=O)Cl)ccc2O1` (stereo unspecified) registered a melting point of 73 to 75 °C.

`Nc1nncc(-c2cc(F)ccc2F)n1` came in with a melting point of 239 to 241 °C.

In turn, `N#Cc1ccc(F)c(CS(=O)(=O)Cl)c1` gave a melting point of 105 to 107 °C.

Consider `Cc1ccc(C)c(S(=O)(=O)Oc2ccccc2C(=O)O)c1`, for which the melting point lay in the range of 120 to 122 °C.

As to `N#Cc1cc2c([nH]c1=O)CCN(CCc1ccccc1)C2`, the melting point lay within 219 to 221 °C.

Turning to `Nc1ccnc(-c2ccccc2)c1`, the melting point was in the range of 126 to 128 °C.

Regarding `COC(=O)C(C)NC(=O)Cc1ccc(Cl)cc1` (stereo unspecified), the melting point was 82 to 84 °C.

Regarding `O=C(O)c1ccncc1N1CCCC1`, the melting point lay within 259 to 261 °C.

With `NC(=NO)c1ccc(Br)cc1`, the melting point was in the range of 153 to 155 °C.

Regarding `Cc1nn(Cc2cccc(Br)c2)c(C)c1C(=O)O`, the melting point was in the range of 174 to 176 °C.

As for `O=C(CCl)Nc1cc(F)ccc1F`, the melting point was in the range of 118 to 120 °C.

In the case of `Cc1ccc(N)cc1NC(=O)c1ccncc1`, the melting point was in the range of 201 to 203 °C.

In turn, `Nc1cc(Cl)ccc1C(=O)N1CCCCC1CCO` (stereo unspecified) yielded a melting point of 115 to 117 °C.

`COc1ccc(NC(=O)c2ccc(Br)cc2)c(C)c1` yielded a melting point of 164 to 166 °C.

In the case of `O=[N+]([O-])c1c(NC2CC2)cccc1NC1CC1`, the melting point fell in the range of 116 to 118 °C.

`O=C1C(Br)CCN1C1CCOCC1` (stereo unspecified) registered a melting point of 67 to 69 °C.

`O=C1CC(=O)N(c2cccnc2)C(=S)N1`: the melting point is 229 to 231 °C.

For the molecule `Cc1ccccc1-c1cc(N)n(CCO)n1`, the melting point fell in the range of 128 to 130 °C.

As for `Cn1ccnc1C(O)C(F)(F)F` (stereo unspecified), the melting point was in the range of 135 to 137 °C.

`CC(C)(C)OC(=O)N1CCCC(n2cc(C(=O)O)cn2)C1` (stereo unspecified) had a melting point of 166 to 168 °C.

For `NS(=O)(=O)c1cc(Cl)c(F)c(C(=O)O)c1`, the melting point fell in the range of 228 to 230 °C.

Consider `CC(C)(C)OC(=O)NCC#Cc1ccc(OCc2ccccc2)cc1`, for which the melting point is 104 to 106 °C.

`O=C(O)c1ccn(-c2ccc(Cl)cc2)n1` came in with a melting point of 169 to 171 °C.

As for `Nc1ccc(S)c(Cl)c1`, the melting point was 78 to 80 °C.

In turn, `CCOc1ccc(C=CCN)cc1` yielded a melting point of 46 to 48 °C.

Take `NCc1ccc(N2CCC(CO)CC2)cc1`: the melting point lay in the range of 138 to 140 °C.

Regarding `COc1ccc(S(=O)(=O)Cl)cc1CC(=O)O`, the melting point is 149 to 151 °C.

`COC(=O)Nc1cccc(C(=O)O)c1` registered a melting point of 229 to 231 °C.

With `COc1ccccc1NC(=O)c1c(C)n[nH]c1N`, the melting point was in the range of 178 to 182 °C.

For `Nc1ccc(Cl)c(-c2nnc3n2CCCCC3)c1`, the melting point fell in the range of 284 to 286 °C.

In turn, `Cc1ccc2ncnc(O)c2c1` showed a melting point of 238 to 240 °C.

On to `Cc1sc(N)c(C(N)=O)c1C`, for which the melting point is 179 to 181 °C.

Regarding `Clc1nc(-c2ccccn2)nc2sc(-c3ccccc3)cc12`, the melting point fell in the range of 186 to 188 °C.

On to `Clc1cc(-n2ccnc2)ncn1`, for which the melting point lay in the range of 127 to 129 °C.

In turn, `Nc1cc(Cc2ccccc2)ccc1O` yielded a melting point of 136 to 138 °C.

`COC(=O)c1c(F)cc(C#N)cc1F` showed a melting point of 111 to 113 °C.

`NC(=O)c1cc(OC2CCNCC2)ccn1` came in with a melting point of 129 to 131 °C.

The molecule `CCC1(C)NC(=O)N(N)C1=O` (stereo unspecified) displayed a melting point of 153 to 155 °C.

In the case of `Nc1sc2c(c1C(=O)NCc1ccccc1)CCCC2`, the melting point is 112 to 114 °C.

Molecule `O=C(O)c1cc(O)cc(OCC(F)(F)F)c1` gave a melting point of 165 to 167 °C.

In turn, `CC1NCCn2c(C(=O)NC3CC3)ccc21` (stereo unspecified) gave a melting point of 128 to 130 °C.

`O=CNc1cc([N+](=O)[O-])ccc1Cl` came in with a melting point of 183 to 185 °C.

`COc1ccc2nc(O)c(C(=O)O)cc2c1` returned a melting point of 309 to 311 °C.

For `O=C(O)C1(S(=O)(=O)c2ccc(Cl)cc2)CCCC1`, the melting point lay in the range of 83 to 85 °C.

Turning to `COc1ccc(C)cc1-n1cc(C(=O)O)ccc1=O`, the melting point lay within 244 to 246 °C.

Regarding `CCn1ncc(C(=O)O)c1C(F)(F)F`, the melting point lay within 136 to 138 °C.

Turning to `CCC(C)NS(=O)(=O)c1ccc(C(=O)O)cc1` (stereo unspecified), the melting point fell in the range of 219 to 221 °C.

In the case of `NS(=O)(=O)c1cc([N+](=O)[O-])cs1`, the melting point fell in the range of 165 to 167 °C.

`O=C1CCCC1c1ccccc1` (stereo unspecified) yielded a melting point of 35 to 37 °C.

`COc1ccc(C(C)=O)c2ccccc12` gave a melting point of 64 to 66 °C.

As for `O=C(O)CCc1csc2nc(C3CC3)cn12`, the melting point lay in the range of 240 to 242 °C.

On to `CC(O)Cc1cc(F)ccc1Br` (stereo unspecified), for which the melting point fell in the range of 56 to 58 °C.

In the case of `CS(=O)(=O)c1ccc2c(c1)CCCN2`, the melting point fell in the range of 112 to 114 °C.

`O=C(CC(=O)C(F)(F)F)c1ccncc1` gave a melting point of 255 to 257 °C.
